Results from patent publication US8618301B2, “5-phenylpyrazolopyridine derivatives, preparation and therapeutic use thereof” (Sanofi, priority 2009, dated 2013).

What was measured:
mouse Nurr1 receptor = target: T1, mouse Nurr1 receptor (Mus musculus, UniProt Q06219); experiment: In vitro activity on N2A cells (8NBRE-luciferase reporter); format: cell-based; conditions: N2A-8NBRE cells, 24 hours incubation
T1 construct: a cell line (N2A) endogenously expressing the mouse Nurr1 receptor; host or cells: Neuro-2A (N2A) mouse neuroblastoma cells stably transfected with 8NBRE-luciferase
T1 sequence (Q06219 whole entry): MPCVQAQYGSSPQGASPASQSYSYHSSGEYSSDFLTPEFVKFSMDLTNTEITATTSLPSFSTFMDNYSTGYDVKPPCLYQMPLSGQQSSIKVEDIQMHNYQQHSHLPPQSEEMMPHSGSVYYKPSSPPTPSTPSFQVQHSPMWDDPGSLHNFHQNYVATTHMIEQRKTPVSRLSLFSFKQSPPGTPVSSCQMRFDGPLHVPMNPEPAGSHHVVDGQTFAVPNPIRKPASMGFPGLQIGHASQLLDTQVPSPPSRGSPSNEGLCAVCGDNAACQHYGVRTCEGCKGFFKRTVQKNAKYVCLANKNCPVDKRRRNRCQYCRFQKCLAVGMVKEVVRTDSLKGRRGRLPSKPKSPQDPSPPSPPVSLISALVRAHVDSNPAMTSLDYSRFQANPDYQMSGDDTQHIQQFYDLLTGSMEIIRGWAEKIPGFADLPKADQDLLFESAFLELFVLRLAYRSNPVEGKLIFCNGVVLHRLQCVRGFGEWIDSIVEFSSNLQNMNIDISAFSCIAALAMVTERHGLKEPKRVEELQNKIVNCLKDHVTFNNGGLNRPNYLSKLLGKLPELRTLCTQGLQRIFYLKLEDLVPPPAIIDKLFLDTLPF
Description: The compounds according to the invention have formed the subject of pharmacological assays which make it possible to determine their modulatory effect on NOT. Evaluation of the In Vitro Activity on N2A Cells
The activity of the compounds according to the invention was evaluated on a cell line (N2A) endogenously expressing the mouse Nurr1 receptor and stably transfected with the NOT binding response element (NBRE) coupled to the luciferase reporter gene. The assays were carried out according to the procedure described below.
The Neuro-2A cell line comes from a standard commercial source (ATCC). The Neuro-2A clone was obtained, from a spontaneous tumour originating from an A albino mouse strain, by R. J Klebe et al. This Neuro-2A line is subsequently stably transfected with 8NBRE-luciferase. The N2A-8NBRE cells are cultured until confluence in 75 cm^2 culture flasks containing DMEM supplemented with 10% of foetal calf serum, 4.5 g/l of glucose and 0.4 mg/ml of geneticin. After a week of culture, the cells are recovered with 0.25% trypsin for 30 seconds and then resuspended in DMEM without phenol red, containing 4.5 g/l of glucose and 10% of Hyclone delipidized serum, and deposited into transparent-bottom 96-well white plates. The cells are deposited at a rate of 60 000 per well in 75 μl for 24 hours before the addition of the products. The products are applied in 25 μl and incubated for a further 24 hours. On the day of the measurement, an equivalent volume (100 μl) of Steadylite is added to each well and then left for a period of 30 minutes in order to obtain complete cell lysis and maximum signal production. The plates are subsequently measured in a luminescence counter for microplates after having been sealed with an adhesive film. The products are prepared in the form of a stock solution at 10^−2M and then diluted in 100% of DMSO. Each product concentration is prediluted in culture medium before incubation with the cells, thus containing 0.625% final concentration of DMSO.

Structure (SMILES)	melting point [°C]	EC50 (mouse Nurr1 receptor) [nM]
CC(O)c1cccc(-c2ccn3nc(-c4ccc(Cl)cc4)cc3c2)c1 (stereo not drawn) [Compound 3, 1-{3-[2-(4-chlorophenyl)pyrazolo[1,5-a]pyridin-5-yl]phenyl}ethanol]	93 to 95	
CC(C)(O)c1cccc(-c2ccn3nc(-c4ccc(Cl)cc4)cc3c2)c1 [Compound 2, 2-{3-[2-(4-chlorophenyl)pyrazolo[1,5-a]pyridin-5-yl]phenyl}propan-2-ol]	159 to 161	
OCc1c(F)ccc(-c2ccn3nc(-c4ccc(Cl)cc4)cc3c2)c1F [Compound 5, {3-[2-(4-chlorophenyl)pyrazolo[1,5-a]pyridin-5-yl]-2,6-difluorophenyl}-methanol]	190 to 192	
OCc1cccc(-c2ccn3nc(-c4ccc(Cl)cc4)cc3c2)c1 [Compound 1, {3-[2-(4-chlorophenyl)pyrazolo[1,5-a]pyridin-5-yl]phenyl}methanol]	161 to 164	0.2
OCc1cccc(-c2ccn3nc(-c4ccc(F)cc4)cc3c2)c1 [Compound 6, {3-[2-(4-fluorophenyl)pyrazolo[1,5-a]pyridin-5-yl]phenyl}methanol]	141 to 143	
OCC1(c2cccc(-c3ccn4nc(-c5ccc(Cl)cc5)cc4c3)c2)CC1 [Compound 4, 1-{3-[2-(4-chlorophenyl)pyrazolo[1,5-a]pyridin-5-yl]phenyl}cyclopropylmethanol]	141 to 143	

The remaining lines, values ahead:

melting point [°C]	EC50 (mouse Nurr1 receptor) [nM]	Structure (SMILES)
214 to 216		OCc1ccc(-c2ccn3nc(-c4ccc(Cl)cc4)cc3c2)cc1 [Compound 10, {4-[2-(4-chlorophenyl)pyrazolo[1,5-a]pyridin-5-yl]phenyl}methanol]
162 to 164		CC(C)(O)c1cccc(-c2ccn3nc(-c4ccc(F)cc4)cc3c2)c1 [Compound 7, 2-{3-[2-(4-fluorophenyl)pyrazolo[1,5-a]pyridin-5-yl]phenyl}propan-2-ol]
144 to 146	1.7	OCc1ccccc1-c1ccn2nc(-c3ccc(Cl)cc3)cc2c1 [Compound 11, {2-[2-(4-chlorophenyl)pyrazolo[1,5-a]pyridin-5-yl]phenyl}methanol]
130 to 132		COCc1cccc(-c2ccn3nc(-c4ccc(Cl)cc4)cc3c2)c1 [Compound 9, 2-(4-chlorophenyl)-5-(3-methoxymethylphenyl)pyrazolo[1,5-a]pyridine]
181 to 183	164	OC1CCc2ccc(-c3ccn4nc(-c5ccc(Cl)cc5)cc4c3)cc21 (stereo not drawn) [Compound 12, 6-[2-(4-chlorophenyl)pyrazolo[1,5-a]pyridin-5-yl]indan-1-ol]
132 to 134		CC(O)c1cccc(-c2ccn3nc(-c4ccc(F)cc4)cc3c2)c1 (stereo not drawn) [Compound 8, 1-{3-[2-(4-fluorophenyl)pyrazolo[1,5-a]pyridin-5-yl]phenyl}ethanol]
